How the values were obtained:
PPARγ-RXRα heterodimer = target: T1, PPARγ-RXRα heterodimer (Homo sapiens, UniProt P37231); assay: PPARγ-RXRα heterodimer ligand activity (luciferase reporter, PPARγ:RXRα:4ERPP/CHO-K1 cells); type: cell-based; conditions: concentration for 50% of maximum fold induction of luciferase, 48 hrs
T1 construct: expressed in transfected cells
T1 sequence (P37231 1-477 isoform P37231-2): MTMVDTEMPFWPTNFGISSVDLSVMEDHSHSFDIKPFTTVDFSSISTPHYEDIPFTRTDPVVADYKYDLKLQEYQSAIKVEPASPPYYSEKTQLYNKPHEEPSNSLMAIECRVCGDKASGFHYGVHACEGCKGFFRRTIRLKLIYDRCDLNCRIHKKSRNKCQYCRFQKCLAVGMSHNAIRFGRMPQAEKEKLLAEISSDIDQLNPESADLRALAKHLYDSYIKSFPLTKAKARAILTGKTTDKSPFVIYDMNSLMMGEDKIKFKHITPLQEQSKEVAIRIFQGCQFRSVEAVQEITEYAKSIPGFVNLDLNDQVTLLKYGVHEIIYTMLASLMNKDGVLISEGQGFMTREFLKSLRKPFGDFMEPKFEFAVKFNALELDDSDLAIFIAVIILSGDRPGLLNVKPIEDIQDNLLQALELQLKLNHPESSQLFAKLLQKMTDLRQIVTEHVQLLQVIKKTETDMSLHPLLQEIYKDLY
T1 sequence (P19793 1-462 partner): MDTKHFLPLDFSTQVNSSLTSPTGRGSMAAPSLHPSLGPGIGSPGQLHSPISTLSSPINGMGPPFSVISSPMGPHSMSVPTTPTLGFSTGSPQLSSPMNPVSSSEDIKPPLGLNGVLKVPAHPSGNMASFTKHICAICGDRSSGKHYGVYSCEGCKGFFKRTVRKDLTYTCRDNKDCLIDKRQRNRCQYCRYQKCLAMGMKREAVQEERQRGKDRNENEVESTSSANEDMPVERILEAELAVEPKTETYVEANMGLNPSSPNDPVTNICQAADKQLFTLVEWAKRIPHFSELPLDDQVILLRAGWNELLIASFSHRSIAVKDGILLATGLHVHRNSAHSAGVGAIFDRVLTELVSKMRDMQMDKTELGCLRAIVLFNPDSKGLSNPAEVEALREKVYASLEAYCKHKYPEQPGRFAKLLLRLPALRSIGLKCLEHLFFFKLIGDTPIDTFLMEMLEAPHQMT
Experimental: (PPARγ-RXRα Heterodimer Ligand Activity)
PPARγ:RXRα:4ERPP/CHO-K1 cells obtained in Reference Example 8a were cultured in HAM F12 medium (manufactured by NISSUI SEIYAKU) containing 10% fetal bovine serum [manufactured by Life Technologies, Inc., USA], seeded in a 96-well white plate [manufactured by Corning Coster Corporation, USA] at the density of 2×10^4 cells/well and cultured in a CO2 gas incubator at 37° C. overnight.
After washing the 96-well white plate with PBS (Phosphate-buffered saline), 90 μl of HAM F12 medium containing 0.1% fatty acid-free bovine serum albumin (BSA) and 10 μl of test compound were added, and the cells were cultured in a CO2 gas incubator at 37° C. for 48 hrs. The medium was removed and 40 μl of PicaGene 7.5 (manufactured by Wako Pure Chemical Industries, Ltd.) was added. After stirring, the luciferase activity was determined using Lumistar [manufactured by BMG Labtechnologies GmbH, Germany].
The fold induction was calculated from the luciferase activity of each test compound when the luciferase activity of the non-treatment group is taken as 1. The values of the test compound concentration and the fold induction were analyzed using PRISM 2.01 (produced by GraphPad Software Inc. USA) to calculate the EC50 values, the effective concentration of a test compound for 50% of the maximum fold induction.
Introduction of Human PPARγ- and RXRα-Expression Plasmid and Reporter Plasmid into CHO-K1 Cell and Establishment of Expressed Cell
After a CHO-K1 cell cultured in a tissue culture flask (750 ml) (produced by Corning Costar Corporation, USA) containing HAM F12 medium (produced by NISSUI SEIYAKU) supplemented with 10% fetal bovine serum (produced by Life Technologies, Inc., USA) was scraped by treating with 0.5 g/L trypsin-0.2 g/L EDTA (ethylenediaminetetraacetic acid) (produced by Life Technologies, Inc., USA), the cell was washed with PBS (phosphate-buffered saline) (produced by Life Technologies, Inc., USA), centrifuged (1000 rpm, 5 minutes), and then suspended in PBS. Subsequently, a DNA was introduced into the cell under the conditions shown below using GENE PULSER (produced by Bio-Rad Laboratories, USA).
Namely, to a cuvette having a 0.4 cm gap, added were 8×10^6 cells and 10 μg of plasmid pVgRXR2-hPPARγ obtained in Reference Example 7a and 10 μg of reporter plasmid pGL3-4ERPP-TK neo obtained in Reference Example 4a, which was subjected to electroporation at the voltage of 0.25 kV under the capacitance of 960 μF. Subsequently, the cell was transferred into a HAM F12 medium containing 10% fetal bovine serum and cultured for 24 hours and then the cell was scraped again and centrifuged, and then suspended in HAM F12 medium containing 10% fetal bovine serum supplemented with 500 μg/ml of GENETICIN, (produced by Life Technologies, Inc., USA) and 250 μg /ml of ZEOCIN (produced by Invitrogen, USA). The obtained suspension was diluted to the density of 10^4 cells/ml and inoculated to a 96-well plate (produced by Corning Costar Corporation, USA), which was cultured in a CO2 gas incubator at 37° C., whereby obtaining a GENETICIN- and ZEOCIN-resistant transformant.
Subsequently, after the transformant cell line thus obtained was cultured in a 24-well plate (produced by Corning Costar Corporation, USA), selected was a cell line in which the luciferase was expressed and induced, i.e., PPARγ:RXRα:4ERPP/CHO-K1 cell by the addition of 10 μM pioglitazone hydrochloride.

EC50 (PPARγ-RXRα heterodimer): 9.9 nM | melting point: 136 to 137 °C
SMILES: Cc1oc(-c2ccccc2)nc1COc1ccc(Sc2nc(-c3ccccc3)c(CCC(=O)O)o2)cc1 [Example 10, 3-[2-[4-(5-methyl-2-phenyl-4-oxazolylmethoxy)phenylthio]-4-phenyl-5-oxazolyl]propionic acid]

— patent publication US7241785B2, “Five-membered heterocyclic alkanoic acid derivative” (Takeda Pharmaceutical Company Limited, priority 2001, dated 2007)
